Experimental data reported in patent US20250339399A1, “SUPRAMOLECULAR SELF-ASSEMBLY SYSTEM” (Beijing Creatron Institute of Pharmaceutical Research Co., …, priority 2022, published 2025).
Values joined by “and” are separate entries in the source; they are usually repeats but may differ in a detail not shown here. Identical values can stand only once. Each block holds one compound with its values, some of them ahead of it.

Columns and labels:
[1] = Guest molecule concentration after incubation in initial medium without polymer (Comparative Example 1); type: physicochemical; conditions: 37° C.
Procedure, shortened: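 Dissolved guest content measured by HPLC of centrifuged supernatants (37° C., 13000 rpm, 5 min) sampled at 0.5 h, 3 h and 6 h. Incubation was polymer-free at 37° C.±0.5° C. in buffers of pH 2.0-7.4; nominal loading was set by maximum clinical dose.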

[2] = cited from earlier work
[3] = Binary (carrier), ternary and quaternary supramolecular self-assembly systems of polymer, carrier building block and target: guest concentration over incubation time (Examples 1-56); type: physicochemical; conditions: for Concentration of guest molecule in solution / Times that of the initial medium: 6 h
Procedure: pH 2.0 hydrochloric acid, pH 4.5 acetate, and pH 6.5, pH 6.8, or pH 7.4 phosphate buffer solutions were prepared. The selection of each initial medium followed the principle that the solubility in the initial medium of the selected targets (or active ingredients) should low enough, but should meet the detection sensitivity and accuracy requirements of the corresponding analytical methods. Each buffer as initial media was placed in a 50 ml test tube with a stopper, shaken in a constant temperature air shaker at 37° C.±0.5° C., with an amplitude of 200 rpm, and incubated for 1 hour. […] Samples were taken at 0.5 h, 3 h and 6 h after incubation, centrifuged at 37° C., 13000 rpm for 5 minutes, and the supernatant was diluted at least 10 times with the mobile phase under the target analyte analytical method, filtered, the initial filtrate was discarded, and the continued filtrate was used as the test solution for injection analysis. The corresponding HPLC method under each target object item in Table 8 was used to determine the content of each target substance. When the solubility of the target in the initial medium is below the quantitative limit of the analytical method, a small amount of surfactant, such as sodium dodecyl sulfate (SDS), Tween20, or Tween80, can be added appropriately.
Experiments were conducted according to the steps in Comparative Example 1, and quantitative analysis was carried out using the analytical method for each target to investigate the regulation ability of each binary supramolecular self-assembly system built from 0.5% polymer and target on guest molecules stacking.
Ternary supramolecular self-assembly systems based on different polymers, carrier building blocks, and targets were built according to the experimental scheme in Table 12, to investigate the influence of synergistic regulation of the carrier building blocks and the polymers on the stacking of target molecules, as well as the stability of the supramolecular self-assembly systems jointly built by them over incubation time. The initial medium, quantitative analysis method, pre-treatment method, and initial theoretical concentration of the target, corresponding to each target molecule in the experiment, were consistent with those in Comparative Examples 1 and 2. After a target was added to the system, the target was uniformly dispersed by ultrasonication at 37° C. for half an hour and then shaken in a 37° C. constant temperature air shaker, and samples were collected after different incubation time, i.e. 0.5 h, 1 h, 2 h, 3 h, 4 h, and 6 h.

[4] = Binary supramolecular self-assembly systems of polymer and target: guest concentration over incubation time (Comparative Example 2); type: physicochemical; conditions: for Times that of the initial medium / Concentration of guest molecule in solution: 6 h
Procedure: Experiments were conducted according to the steps in Comparative Example 1, and quantitative analysis was carried out using the analytical method for each target to investigate the regulation ability […] stacking.

[5] = ternary: 102H (0.25% where stated) + 301, carrier % not stated
[6] = ternary: 102H (0.25% where stated) + 302, carrier % not stated
[7] = binary system with 0.5% polymer 102, incubation 0.5 h
[8] = binary system with 0.5% polymer 102, incubation 3 h
[9] = binary system with 0.5% polymer 102, incubation 6 h
[10] = binary system with 0.5% polymer 103, incubation 0.5 h
[11] = binary system with 0.5% polymer 103, incubation 3 h
[12] = binary system with 0.5% polymer 103, incubation 6 h
[13] = binary system with 0.5% polymer 104, incubation 0.5 h
[14] = binary system with 0.5% polymer 104, incubation 3 h
[15] = binary system with 0.5% polymer 104, incubation 6 h
[16] = 0.5 h, 0.05% Tween 20 in pH 6.8 phosphate buffer
[17] = 3 h, 0.05% Tween 20 in pH 6.8 phosphate buffer
[18] = 6 h, 0.05% Tween 20 in pH 6.8 phosphate buffer
[19] = binary system with 0.5% polymer 101, incubation 0.5 h
[20] = binary system with 0.5% polymer 101, incubation 3 h
[21] = binary system with 0.5% polymer 101, incubation 6 h
[22] = binary system with 0.5% polymer 106, incubation 0.5 h
[23] = binary system with 0.5% polymer 106, incubation 3 h
[24] = binary system with 0.5% polymer 106, incubation 6 h
[25] = binary system with 0.5% polymer 107, incubation 0.5 h
[26] = binary system with 0.5% polymer 107, incubation 3 h
[27] = binary system with 0.5% polymer 107, incubation 6 h
[28] = 0.25% 205 (102H+104) + 0.25% 301
[29] = quaternary: 204 (102H+103E5) + 0.5% 301
[30] = ternary: 102H + 313 at further increased mass percentage
[31] = ternary: 102H + 318 at further increased mass percentage

Concentration of guest molecule measured after different incubated time ([1]; 0.5 h, 0.05% SDS in pH 6.8 phosphate buffer): 6.6 µg/mL
Concentration of guest molecule measured after different incubated time ([1]; 3 h, 0.05% SDS in pH 6.8 phosphate buffer): 6.2 µg/mL
Concentration of guest molecule measured after different incubated time ([1]; 6 h, 0.05% SDS in pH 6.8 phosphate buffer): 6.4 µg/mL
Concentration of guest molecule in solution [3, 5]: 168.1 µg/mL
Times that of the initial medium [3, 5]: 26 times
Concentration of guest molecule in solution [3, 6]: 188.6 µg/mL
Times that of the initial medium [3, 6]: 29.5 times
Concentration of the target in the solution measured after different incubation time [4, 7]: 109.4 µg/mL
Concentration of the target in the solution measured after different incubation time [4, 8]: 117.2 µg/mL
Concentration of the target in the solution measured after different incubation time [4, 9]: 138.9 µg/mL
Concentration of the target in the solution measured after different incubation time [4, 10]: 8.4 µg/mL
Concentration of the target in the solution measured after different incubation time [4, 11]: 6.9 µg/mL
Concentration of the target in the solution measured after different incubation time [4, 12]: 0.9 µg/mL
Concentration of the target in the solution measured after different incubation time [4, 13]: 6.8 µg/mL
Concentration of the target in the solution measured after different incubation time [4, 14]: 3.6 µg/mL
Concentration of the target in the solution measured after different incubation time [4, 15]: 2.7 µg/mL
Times that of the initial medium ([4]; binary: 0.5% 101): 18 times
Concentration of guest molecule in solution ([4]; binary: 0.5% 102H): 86.6 µg/mL
Times that of the initial medium ([4]; binary: 0.5% 102H): 13.5 times
SMILES: O=C1[C@H](CC[C@H](O)c2ccc(F)cc2)[C@@H](c2ccc(O)cc2)N1c1ccc(F)cc1 [Ezetimibe]
LogD7.4 or Log P [2]: 4.56

Concentration of guest molecule measured after different incubated time [1, 16]: 18.1 µg/mL
Concentration of guest molecule measured after different incubated time [1, 17]: 17.8 µg/mL
Concentration of guest molecule measured after different incubated time [1, 18]: 20.4 µg/mL
Concentration of guest molecule in solution ([3]; ternary: 0.25% 102H + 1.0% 313): 662 µg/mL
Times that of the initial medium ([3]; ternary: 0.25% 102H + 1.0% 313): about 32.5 times
Concentration of the target in the solution measured after different incubation time [4, 19]: 144.8 µg/mL
Concentration of the target in the solution measured after different incubation time [4, 20]: 152.8 µg/mL
Concentration of the target in the solution measured after different incubation time [4, 21]: 147.5 µg/mL
Concentration of the target in the solution measured after different incubation time [4, 7]: 459.9 µg/mL
Concentration of the target in the solution measured after different incubation time [4, 8]: 472.0 µg/mL
Concentration of the target in the solution measured after different incubation time [4, 9]: 459.4 µg/mL
Concentration of the target in the solution measured after different incubation time [4, 10]: 18.9 µg/mL
Concentration of the target in the solution measured after different incubation time [4, 11]: 18.9 µg/mL
Concentration of the target in the solution measured after different incubation time [4, 12]: 22.2 µg/mL
Concentration of the target in the solution measured after different incubation time [4, 22]: 33.5 µg/mL
Concentration of the target in the solution measured after different incubation time [4, 23]: 30.2 µg/mL
Concentration of the target in the solution measured after different incubation time [4, 24]: 23.6 µg/mL
Concentration of the target in the solution measured after different incubation time [4, 25]: 51.2 µg/mL
Concentration of the target in the solution measured after different incubation time [4, 26]: 26.7 µg/mL
Concentration of the target in the solution measured after different incubation time [4, 27]: 11.8 µg/mL
Concentration of guest molecule in solution ([4]; binary: 0.25% 102H): 276 µg/mL
Times that of the initial medium ([4]; binary: 0.25% 102H): about 13.5 times
SMILES: CCOC(=O)C1=C(C)NC(C)=C(C(=O)OC)C1c1cccc(Cl)c1Cl (stereo not shown) [Felodipine]
LogD7.4 or Log P [2]: 3.90

Concentration of guest molecule measured after different incubated time [1, 16]: 16.5 µg/mL
Concentration of guest molecule measured after different incubated time [1, 17]: 17.9 µg/mL
Concentration of guest molecule measured after different incubated time [1, 18]: 18.4 µg/mL
Concentration of guest molecule in solution [3, 28]: 157.4 µg/mL
Times that of the initial medium [3, 28]: 8.6 times
Concentration of guest molecule in solution ([3]; binary, no polymer: 0.5% 301): 156.9 µg/mL
Times that of the initial medium ([3]; binary, no polymer: 0.5% 301): 8.5 times
Concentration of guest molecule in solution [3, 29]: 206.4 µg/mL
Times that of the initial medium [3, 29]: 11 times
Encapsulation rate for the guest molecule ([3]; ternary: 0.25% 102H + 0.5% 319): ~100%
Concentration of guest molecule in solution [3, 5]: 446.0 µg/mL
Times that of the initial medium [3, 5]: about 25 times
Concentration of guest molecule in solution [3, 6]: 410.7 µg/mL
Times that of the initial medium [3, 6]: 22 times
Concentration of guest molecule in solution ([3]; ternary: 102H + 313, carrier % not given): 436.6 µg/mL
Encapsulation rate for the guest molecule [3, 30]: ~100%
Concentration of guest molecule in solution [3, 30]: 792.1 µg/mL
Times that of the initial medium [3, 30]: 43 times
Concentration of guest molecule in solution ([3]; ternary: 102H + 318, carrier % not stated): 429.9 µg/mL
Concentration of guest molecule in solution [3, 31]: 774.7 µg/mL
Times that of the initial medium [3, 31]: 42 times
Concentration of the target in the solution measured after different incubation time [4, 19]: 48.5 µg/mL
Concentration of the target in the solution measured after different incubation time [4, 20]: 93.5 µg/mL
Concentration of the target in the solution measured after different incubation time [4, 21]: 95.3 µg/mL
Concentration of the target in the solution measured after different incubation time [4, 7]: 168.1 µg/mL
Concentration of the target in the solution measured after different incubation time [4, 8]: 176.4 µg/mL
Concentration of the target in the solution measured after different incubation time [4, 9]: 154.5 µg/mL
Concentration of the target in the solution measured after different incubation time [4, 10]: 44.1 µg/mL
Concentration of the target in the solution measured after different incubation time [4, 11]: 17.8 µg/mL
Concentration of the target in the solution measured after different incubation time [4, 12]: 17.1 µg/mL
Concentration of the target in the solution measured after different incubation time [4, 13]: 13.4 µg/mL
Concentration of the target in the solution measured after different incubation time [4, 14]: 13.7 µg/mL
Concentration of the target in the solution measured after different incubation time [4, 15]: 14.3 µg/mL
Concentration of the target in the solution measured after different incubation time [4, 22]: 33.8 µg/mL
Concentration of the target in the solution measured after different incubation time [4, 23]: 65.9 µg/mL
Concentration of the target in the solution measured after different incubation time [4, 24]: 68.4 µg/mL
Concentration of the target in the solution measured after different incubation time [4, 25]: 47.9 µg/mL
Concentration of the target in the solution measured after different incubation time [4, 26]: 53.1 µg/mL
Concentration of the target in the solution measured after different incubation time [4, 27]: 56.0 µg/mL
Concentration of guest molecule in solution ([4]; binary: 0.25% 102H): 260.2 µg/mL
Times that of the initial medium ([4]; binary: 0.25% 102H): 14 times and 14.5 times
SMILES: C=CC(=O)N1CCC[C@@H](n2nc(-c3ccc(Oc4ccccc4)cc3)c3c(N)ncnc32)C1 [Ibrutinib]
LogD7.4 or Log P [2]: 3.63
